Results: patent US20240041951A1, “METHOD FOR IMPROVING PRODUCTIVITY IN LIVESTOCK AND/OR POULTRY AND METHOD FOR IMPROVING INTESTINAL FLORA IN LIVESTOCK AND/OR POULTRY” (Hayashibara Co., Ltd., priority 2020, published 2024)
Where two headings read alike, the source gives them in different places. Marks after values point to notes of the source that are not given here.

Tests used:
Type in all cases: in vivo, male Chunky broiler chickens
[1] = system: bacteria belonging to the genus Lactobacillus; experiment: Intestinal flora: number of Lactobacillus cells in ileum content of reared broiler chickens; conditions: ileum content at 24 days old
[2] = system: Welch bacillus (Clostridium perfringens); conditions: ileum content at 24 days old, average of stocking densities 11 and 14 individuals/m^2, * = significant vs control (p<0.05)
[3] = Rearing test: body weight, weight gain, feed intake and feed conversion ratio; conditions: for Feed conversion ratio: feed intake/weight gain
[4] = Rearing test: uniformity of body weight (coefficient of variation); conditions: body weights of individual chickens at 42 days old; (standard deviation/average)×100
[5] = from 0 day old to 42 days old (entire rearing period)
[6] = from 0 day old to 42 days old (entire rearing period), listed as trehalose group
[7] = from 35 days old to 42 days old (finishing period)
[8] = from 35 days old to 42 days old (finishing period), listed as trehalose group

With `OC[C@H]1O[C@H](O[C@H]2O[C@H](CO)[C@@H](O)[C@H](O)[C@H]2O)[C@H](O)[C@@H](O)[C@@H]1O` [Trehalose group, α,α-trehalose] the “Number of microbial cells, Lactobacillus spp.” value [1] was 10.2 × 10^7 cells/g, the “Number of microbial cells, Lactobacillus spp.” value ([1]; listed as trehalose group) was 10.2×10^7 cells/g and the “Number of microbial cells, Clostridium perfringens” value [2] was 0.37 × 10^2* cells/g. The “Number of microbial cells, Clostridium perfringens” value ([2]; listed as trehalose group) was 0.37×10^2 cells/g, the Average body weight ([3]; 0 day old (start of rearing)) was 41 g and the Average body weight ([3]; 35 days old) was 2621 g. It also gave an Average body weight ([3]; 42 days old) of 3251 g, a Feed intake ([3]; from 0 day old to 35 days old) of 3458 g and a Weight gain ([3]; from 0 day old to 35 days old) of 2580 g. For the same compound, the Feed conversion ratio ([3]; from 0 day old to 35 days old) was 1.340, the Feed intake [3, 5] was 4756 g and the Weight gain [3, 5] was 3210* g. The Feed conversion ratio [3, 5] was 1.482*, the Feed conversion ratio [3, 6] was 1.482 and the Weight gain [3, 6] was 3210 g. For the same compound, the Feed intake [3, 7] was 1320 g, the Weight gain [3, 7] was 630* g and the Feed conversion ratio [3, 7] was 2.095*. It also gave a Feed conversion ratio [3, 8] of 2.095, a Weight gain [3, 8] of 630 g and a Coefficient of variation [4] of 7.9%.
